These results are taken from patent US20050124624A1, “4-(4-methylpiperazin-1-ylmethyl)-n-[4-methyl-3-(4-pyridin-3-yl)pyrimidin-2-yl-amino)phenyl]-benzamide for threating ang ii-mediated diseases” (priority 2002, published 2005).

The subject of one assay is mesenteric vessels. Description: Histomorphometry of mesenteric vessels (media wall:lumen ratio, trichrome ECM) in angiotensin II-infused rats. Format: in vivo, Sprague Dawley rats. The method, then:
(§1) Rats were randomized to receive minipumps filled vehicle (0.15 M NaCl, 1 mmol/l acetic acid) either with or without angiotensin II (58 ng/min), as previously described (Cao Z et col. Kidney Int 58:2437-2451, 2000).
Histochemistry and immunohistochemistry: Histological studies of vascular architecture were performed in a subset of animals (n=8/group). Animals in this subgroup were anesthetized with pentobarbital sodium (Nembutal, Bomac Laboratories, Asquith, Australia) and vessels were perfused at arterial pressure with 10% neutral buffered formalin via an intra-aortic cannula. Tissues were then prepared as previously described (Cooper M E et col.; Diabetes 43:1221-1228,1994). In brief, mesenteric vessels were placed in ice cold phosphate buffer where fat, connective tissue and veins were removed by blunt dissection. The resultant vessel preparation was then embedded in paraffin. Sections were then either histochemically or immunohistochemically stained. […]
Quantification of histopathology: The proportion of vessel wall occupied by the media was identified by immunolabelling for α-smooth muscle actinand the ratio of the wall:lumen quantified using of a video-imaging system (Video Pro 32, Leading Edge, Bedford Park, South Australia, Australia), connected to a light microscope (Zeiss, Oberkocken, Germany) with photographic attachment (Axiophot, Zeiss, Oberkocken, Germany). Using this device, the media (areas stained with the anti-actin antibody) and corresponding lumenal areas were determined in a median of 20 (range 10-35) vessels per animal and expressed as wall:lumen ratio, as previously described in other models of vascular hypertrophy (Kakinuma Yet col.; Kidney Int 42:46-55., 1992).
Quantification of ECM was performed on trichrome-stained sections by calculating the proportion of area occupied by ECM using computer-assisted image analysis as previously described (Lehr H A, et col. J Histochem Cytochem 45:1559-1565, 1997). […]

The subject of assay [1] is Transforming growth factor-β1 (TGF-β1). In words: Quantitative real-time RT-PCR of mesenteric vessel TGF-β1 gene expression. Format: in vivo, Sprague Dawley rats. Particulars: mesenteric vessel mRNA, compared with untreated counterparts also subjected to angiotensin II-infusion. On the procedure: as §1
(§2) RNA Extraction and cDNA synthesis Frozen mesenteric vascular tissue, stored at −80° C. was homogenized (Ultra-Turrax, Janke and Kunkel, Staufen, Germany) and total RNA was isolated by the acid guanidinium thiocyanate-phenol-chloroform extraction method (Chomczynski P, Sacchi N; Anal Biochem 162:156-159,1987). The purified RNA was dissolved in sterile water, quantified spectrophotometrically and its concentration adjusted to 1 μg/μl. […]
(§3) Quantitative Real Time RT-PCR: Transforming growth factor-β1 (TGF-β1) and platelet-derived growth factor (PDGF) gene expression was quantified by real-time RT-PCR using sequence specific primers as previously reported by our group (Ahola H, et col.; American Journal of Pathology 155:907-913,1999). […] Both probes included a fluorescence reporter (6-carboxyfluorescein [FAM]) at the 5′-end and a fluorescent quencher (6-carboxytetramethylrhodamine [TAMRA]) at the 3′-end. For the relative quantification of the target gene and the endogenous reference 18S ribosomal RNA (18S), real-time quantitative RT-PCR was performed using an GeneAmp 5700 Sequence Detector (PE Biosystems, Foster City, Calif.) according to the manufacturer's instructions. […]
Background: Quantitative PCR measures a nucleic acid by following its amplification.

The test system of assay [2] is platelet-derived growth factor (PDGF). In words: Quantitative real-time RT-PCR of mesenteric vessel PDGF gene expression. Particulars: mesenteric vessel mRNA, angiotensin II infused animals. Format: in vivo, Sprague Dawley rats. The method, then: as §1, §2, §3
For assay [3], the system named is angiotensin II-infused rats. In words: Angiotensin II infusion in rats: systolic blood pressure and mesenteric vessel weight. Particulars: 60 mg/kg daily gavage, 12 days.
The mark [4] stands for this setting: trichrome stained sections, 60 mg/kg daily.

With `Cc1ccc(NC(=O)c2ccc(CN3CCN(C)CC3)cc2)cc1Nc1nccc(-c2cccnc2)n1` [Imatinib, N-{5-[4-(4-methyl-piperazino-methyl)-benzoylamido]-2-methylphenyl}-4-(3-pyridyl)-2-pyrimidine-amine], the “media wall:lumen ratio” value in the assay with mesenteric vessels (60 mg/kg daily gavage, 12 days, p<0.001) is given as 0.4. Also, in the assay on mesenteric vessels (setting [4]), the “extent of ECM expansion” value was “significantly reduced” and the media hypertrophy result is recorded as “significantly reduced”. For the same compound, the TGF-β expression entry in assay [1] is listed as “further increase”. Also, the PDGF gene expression entry in assay [2] is listed as “unaffected”. Also, the systolic blood pressure in assay [3] (angiotensin II (58 ng/min) infused rats, tail-cuff, mean±SE, stated as no effect) is listed as 205±10 mmHg. For the same compound, the mesenteric weight in assay [3] (animals receiving angiotensin II, p<0.001, significantly reduced) is recorded as 42 mg.
